How the values were obtained:
Assay in all cases: kinobeads assay with mass spectrometry detection of kinases (kinase selectivity profile)
Format in all cases: binding
kinases (kinome) [1] = target: T1, kinases (kinome) (Homo sapiens, UniProt Q92918); conditions: HPK1 (STE), IPI00020258
T1 construct: determined in kinobeads assays with mass spectrometry detection of kinases as described previously; endogenous in cells; host or cells: cell lysate
Text: (§1) The protein kinase complement of the human genome (the kinome) was described previously (Manning et al., 2002. Science 298(5600):1912-1934). Sequence accession numbers are defined by the International Protein Index (IPI) (Kersey et al., 2004. Proteomics 4(7):1985-1988).

kinases (kinome) [2] = target: T2, kinases (kinome) (Homo sapiens, UniProt Q13555); conditions: CaMK2g (CAMK), IPI00908444
T2 construct: determined in kinobeads assays with mass spectrometry detection of kinases as described previously; endogenous in cells; host or cells: cell lysate
Text: as §1

kinases (kinome) [3] = target: T3, kinases (kinome) (Homo sapiens, UniProt Q8TD19); conditions: NEK9 (Other), IPI00301609
T3 construct: determined in kinobeads assays with mass spectrometry detection of kinases as described previously; endogenous in cells; host or cells: cell lysate
T3 sequence (Q8TD19 1-979): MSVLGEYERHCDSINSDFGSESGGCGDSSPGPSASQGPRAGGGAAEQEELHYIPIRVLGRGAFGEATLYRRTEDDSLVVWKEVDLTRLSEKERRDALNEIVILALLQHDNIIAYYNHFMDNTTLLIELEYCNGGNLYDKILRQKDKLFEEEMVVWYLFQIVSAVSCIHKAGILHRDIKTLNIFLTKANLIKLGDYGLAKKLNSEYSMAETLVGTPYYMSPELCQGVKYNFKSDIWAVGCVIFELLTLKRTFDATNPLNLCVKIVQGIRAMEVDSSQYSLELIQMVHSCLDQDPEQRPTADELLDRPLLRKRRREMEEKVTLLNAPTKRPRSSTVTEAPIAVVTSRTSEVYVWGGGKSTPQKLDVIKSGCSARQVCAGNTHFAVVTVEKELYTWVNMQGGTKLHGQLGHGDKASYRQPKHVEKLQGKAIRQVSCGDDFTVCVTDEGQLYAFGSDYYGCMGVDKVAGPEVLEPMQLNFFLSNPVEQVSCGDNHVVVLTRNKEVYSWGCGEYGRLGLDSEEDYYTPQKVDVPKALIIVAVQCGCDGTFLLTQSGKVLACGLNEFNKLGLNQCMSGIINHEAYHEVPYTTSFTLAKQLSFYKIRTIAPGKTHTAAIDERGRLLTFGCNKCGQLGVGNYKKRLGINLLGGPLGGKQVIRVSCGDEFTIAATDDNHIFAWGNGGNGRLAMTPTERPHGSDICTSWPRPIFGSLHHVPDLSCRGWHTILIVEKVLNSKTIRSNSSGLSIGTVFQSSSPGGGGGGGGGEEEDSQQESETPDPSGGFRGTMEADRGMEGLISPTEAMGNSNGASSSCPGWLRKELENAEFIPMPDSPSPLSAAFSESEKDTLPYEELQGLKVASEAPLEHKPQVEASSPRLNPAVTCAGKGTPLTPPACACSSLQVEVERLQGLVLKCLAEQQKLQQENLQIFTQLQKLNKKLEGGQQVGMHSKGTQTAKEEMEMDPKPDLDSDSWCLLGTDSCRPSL
Text: as §1

kinases (kinome) [4] = target: T4, kinases (kinome) (Homo sapiens, UniProt Q08881); conditions: ITK (TK), IPI00004566
T4 construct: determined in kinobeads assays with mass spectrometry detection of kinases as described previously; endogenous in cells; host or cells: cell lysate
T4 sequence (Q08881 1-620): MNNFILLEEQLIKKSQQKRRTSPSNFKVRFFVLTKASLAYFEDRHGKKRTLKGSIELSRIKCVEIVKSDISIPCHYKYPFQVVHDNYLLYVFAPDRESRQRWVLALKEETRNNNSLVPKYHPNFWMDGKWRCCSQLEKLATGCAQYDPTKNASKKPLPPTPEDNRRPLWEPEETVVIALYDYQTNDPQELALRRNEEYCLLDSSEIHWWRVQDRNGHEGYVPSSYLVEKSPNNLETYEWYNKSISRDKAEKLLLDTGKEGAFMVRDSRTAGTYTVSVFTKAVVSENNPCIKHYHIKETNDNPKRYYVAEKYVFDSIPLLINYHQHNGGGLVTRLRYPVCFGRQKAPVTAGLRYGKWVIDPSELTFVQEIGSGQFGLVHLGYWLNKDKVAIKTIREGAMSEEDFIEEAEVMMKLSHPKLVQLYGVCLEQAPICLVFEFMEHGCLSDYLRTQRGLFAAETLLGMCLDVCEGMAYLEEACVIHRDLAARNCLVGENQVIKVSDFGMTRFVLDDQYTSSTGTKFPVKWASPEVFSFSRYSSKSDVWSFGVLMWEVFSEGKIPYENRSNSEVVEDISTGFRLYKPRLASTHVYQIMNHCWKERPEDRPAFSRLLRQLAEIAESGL
Text: as §1

kinases (kinome) [5] = target: T5, kinases (kinome) (Homo sapiens, UniProt P27448); conditions: MARK3 (CAMK), IPI00183118
T5 construct: determined in kinobeads assays with mass spectrometry detection of kinases as described previously; endogenous in cells; host or cells: cell lysate
Text: as §1

kinases (kinome) [6] = target: T6, kinases (kinome) (Homo sapiens, UniProt Q7KZI7); conditions: MARK2 (CAMK), IPI00555838
T6 construct: determined in kinobeads assays with mass spectrometry detection of kinases as described previously; endogenous in cells; host or cells: cell lysate
Text: as §1

kinases (kinome) [7] = target: T7, kinases (kinome) (Homo sapiens, UniProt Q9UBF8); conditions: PIK4Cb (Lipid Kinase), IPI00641770
T7 construct: determined in kinobeads assays with mass spectrometry detection of kinases as described previously; endogenous in cells; host or cells: cell lysate
Text: as §1

kinases (kinome) [8] = target: T8, kinases (kinome) (Homo sapiens, UniProt P53671); conditions: LIMK2 (TKL), IPI00025698
T8 construct: determined in kinobeads assays with mass spectrometry detection of kinases as described previously; endogenous in cells; host or cells: cell lysate
Text: as §1

kinases (kinome) [9] = target: T9, kinases (kinome) (Homo sapiens, UniProt Q06187); conditions: BTK (TK), IPI00029132
T9 construct: determined in kinobeads assays with mass spectrometry detection of kinases as described previously; endogenous in cells; host or cells: cell lysate
Text: as §1

Measured: IC50

T6 sequence (Q7KZI7 whole entry): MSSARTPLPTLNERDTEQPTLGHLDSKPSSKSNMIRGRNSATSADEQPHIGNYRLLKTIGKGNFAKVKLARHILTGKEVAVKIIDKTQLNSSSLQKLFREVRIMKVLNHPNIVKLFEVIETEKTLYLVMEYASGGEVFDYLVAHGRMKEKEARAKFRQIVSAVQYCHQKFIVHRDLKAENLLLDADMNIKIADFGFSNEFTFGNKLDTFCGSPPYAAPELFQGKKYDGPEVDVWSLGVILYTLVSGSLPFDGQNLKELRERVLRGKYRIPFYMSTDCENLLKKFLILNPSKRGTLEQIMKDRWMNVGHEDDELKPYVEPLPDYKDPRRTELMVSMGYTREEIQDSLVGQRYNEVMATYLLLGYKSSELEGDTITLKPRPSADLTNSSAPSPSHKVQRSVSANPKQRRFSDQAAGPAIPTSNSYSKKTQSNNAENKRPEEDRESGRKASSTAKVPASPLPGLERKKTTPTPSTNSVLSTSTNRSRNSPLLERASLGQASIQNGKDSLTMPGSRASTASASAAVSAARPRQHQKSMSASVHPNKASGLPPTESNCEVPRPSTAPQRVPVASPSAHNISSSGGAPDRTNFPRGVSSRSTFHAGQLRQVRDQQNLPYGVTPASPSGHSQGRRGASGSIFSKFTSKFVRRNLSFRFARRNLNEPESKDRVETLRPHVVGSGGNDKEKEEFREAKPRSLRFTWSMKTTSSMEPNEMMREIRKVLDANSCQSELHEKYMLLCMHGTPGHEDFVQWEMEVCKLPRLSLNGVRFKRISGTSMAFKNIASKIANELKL
T5 sequence (P27448 whole entry): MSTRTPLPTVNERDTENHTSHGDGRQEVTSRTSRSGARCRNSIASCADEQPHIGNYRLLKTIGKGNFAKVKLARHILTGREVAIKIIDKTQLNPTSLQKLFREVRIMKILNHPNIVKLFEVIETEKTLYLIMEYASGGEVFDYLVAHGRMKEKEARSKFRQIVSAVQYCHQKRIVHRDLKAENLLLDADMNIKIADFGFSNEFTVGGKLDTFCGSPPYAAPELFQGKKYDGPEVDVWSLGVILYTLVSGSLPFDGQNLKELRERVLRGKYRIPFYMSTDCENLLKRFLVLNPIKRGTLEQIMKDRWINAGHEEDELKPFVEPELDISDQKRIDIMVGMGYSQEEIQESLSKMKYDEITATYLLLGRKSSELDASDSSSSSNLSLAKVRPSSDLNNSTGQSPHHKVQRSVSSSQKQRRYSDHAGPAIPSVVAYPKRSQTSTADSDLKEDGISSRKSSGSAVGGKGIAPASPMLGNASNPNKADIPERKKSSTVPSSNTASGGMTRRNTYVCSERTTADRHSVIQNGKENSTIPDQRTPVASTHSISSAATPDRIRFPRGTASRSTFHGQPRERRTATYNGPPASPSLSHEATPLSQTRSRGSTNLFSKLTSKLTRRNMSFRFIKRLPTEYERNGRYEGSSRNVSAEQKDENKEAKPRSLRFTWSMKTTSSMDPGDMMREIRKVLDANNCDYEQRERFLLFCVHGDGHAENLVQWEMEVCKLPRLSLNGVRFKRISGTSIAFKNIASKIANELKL
T9 sequence (Q06187 whole entry): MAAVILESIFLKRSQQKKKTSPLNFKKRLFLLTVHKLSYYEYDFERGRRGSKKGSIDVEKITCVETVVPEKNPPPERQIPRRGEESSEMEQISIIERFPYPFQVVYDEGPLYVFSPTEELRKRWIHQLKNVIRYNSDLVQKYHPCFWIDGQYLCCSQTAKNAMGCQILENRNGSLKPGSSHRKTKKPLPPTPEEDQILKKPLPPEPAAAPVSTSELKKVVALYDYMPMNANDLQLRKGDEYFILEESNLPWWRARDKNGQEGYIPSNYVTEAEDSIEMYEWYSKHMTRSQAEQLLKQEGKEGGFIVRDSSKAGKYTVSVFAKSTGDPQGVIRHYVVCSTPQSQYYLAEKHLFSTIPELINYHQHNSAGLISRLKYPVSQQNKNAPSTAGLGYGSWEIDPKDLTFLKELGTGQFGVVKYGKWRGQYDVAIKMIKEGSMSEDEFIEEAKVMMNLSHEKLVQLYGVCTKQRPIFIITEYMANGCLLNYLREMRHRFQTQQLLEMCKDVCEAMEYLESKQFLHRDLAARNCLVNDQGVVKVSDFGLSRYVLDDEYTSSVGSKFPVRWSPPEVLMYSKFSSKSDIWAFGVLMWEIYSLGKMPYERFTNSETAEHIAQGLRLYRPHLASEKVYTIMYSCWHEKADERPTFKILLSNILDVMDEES
T8 sequence (P53671 whole entry): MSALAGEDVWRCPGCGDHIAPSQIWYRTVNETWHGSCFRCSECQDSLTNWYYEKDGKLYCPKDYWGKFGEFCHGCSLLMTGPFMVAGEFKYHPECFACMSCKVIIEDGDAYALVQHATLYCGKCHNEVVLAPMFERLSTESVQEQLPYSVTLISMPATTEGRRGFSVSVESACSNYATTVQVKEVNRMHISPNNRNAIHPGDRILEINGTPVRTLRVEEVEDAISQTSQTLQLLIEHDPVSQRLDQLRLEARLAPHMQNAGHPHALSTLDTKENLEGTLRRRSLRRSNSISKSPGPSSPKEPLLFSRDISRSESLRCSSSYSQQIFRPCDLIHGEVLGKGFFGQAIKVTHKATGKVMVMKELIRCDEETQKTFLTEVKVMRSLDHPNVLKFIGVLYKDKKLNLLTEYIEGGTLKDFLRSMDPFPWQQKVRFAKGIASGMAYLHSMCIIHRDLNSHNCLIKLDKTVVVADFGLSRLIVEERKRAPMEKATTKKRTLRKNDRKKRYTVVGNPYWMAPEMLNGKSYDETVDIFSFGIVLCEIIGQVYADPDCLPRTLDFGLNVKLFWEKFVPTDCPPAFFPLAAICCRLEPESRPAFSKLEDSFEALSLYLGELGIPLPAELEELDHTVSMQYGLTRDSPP
T2 sequence (Q13555 whole entry): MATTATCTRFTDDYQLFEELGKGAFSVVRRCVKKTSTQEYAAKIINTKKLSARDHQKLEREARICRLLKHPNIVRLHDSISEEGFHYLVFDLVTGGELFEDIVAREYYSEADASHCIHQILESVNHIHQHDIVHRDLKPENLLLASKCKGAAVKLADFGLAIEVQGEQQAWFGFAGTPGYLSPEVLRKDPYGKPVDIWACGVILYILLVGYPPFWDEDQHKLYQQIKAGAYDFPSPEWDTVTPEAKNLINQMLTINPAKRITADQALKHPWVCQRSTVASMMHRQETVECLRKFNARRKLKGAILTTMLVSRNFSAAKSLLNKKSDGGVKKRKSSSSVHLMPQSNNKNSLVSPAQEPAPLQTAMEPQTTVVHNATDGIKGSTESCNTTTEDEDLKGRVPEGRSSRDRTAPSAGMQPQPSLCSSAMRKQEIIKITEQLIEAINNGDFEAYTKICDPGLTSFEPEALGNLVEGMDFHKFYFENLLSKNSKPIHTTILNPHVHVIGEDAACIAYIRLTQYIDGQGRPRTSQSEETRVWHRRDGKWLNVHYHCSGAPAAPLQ
T7 sequence (Q9UBF8 whole entry): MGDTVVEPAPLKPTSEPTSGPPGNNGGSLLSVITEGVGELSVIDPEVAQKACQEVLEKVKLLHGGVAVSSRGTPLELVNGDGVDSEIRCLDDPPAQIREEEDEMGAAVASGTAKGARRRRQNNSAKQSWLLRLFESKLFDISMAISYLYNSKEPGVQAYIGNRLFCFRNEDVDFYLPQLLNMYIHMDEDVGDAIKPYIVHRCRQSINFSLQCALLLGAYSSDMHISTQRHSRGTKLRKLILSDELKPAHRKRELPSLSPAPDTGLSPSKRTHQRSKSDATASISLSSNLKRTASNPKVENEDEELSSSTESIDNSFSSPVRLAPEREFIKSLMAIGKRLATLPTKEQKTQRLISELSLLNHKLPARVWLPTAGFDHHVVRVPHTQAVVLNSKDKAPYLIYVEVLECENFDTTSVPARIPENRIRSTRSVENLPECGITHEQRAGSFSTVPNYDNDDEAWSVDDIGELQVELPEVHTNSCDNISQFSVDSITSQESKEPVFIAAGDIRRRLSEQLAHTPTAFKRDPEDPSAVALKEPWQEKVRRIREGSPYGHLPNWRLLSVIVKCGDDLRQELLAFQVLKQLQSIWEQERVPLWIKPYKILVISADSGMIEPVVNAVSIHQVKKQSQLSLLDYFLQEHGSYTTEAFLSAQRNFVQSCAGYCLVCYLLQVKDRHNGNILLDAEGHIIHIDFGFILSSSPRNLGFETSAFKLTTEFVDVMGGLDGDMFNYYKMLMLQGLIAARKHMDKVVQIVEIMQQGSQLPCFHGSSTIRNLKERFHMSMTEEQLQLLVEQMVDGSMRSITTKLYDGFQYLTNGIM
T1 sequence (Q92918 whole entry): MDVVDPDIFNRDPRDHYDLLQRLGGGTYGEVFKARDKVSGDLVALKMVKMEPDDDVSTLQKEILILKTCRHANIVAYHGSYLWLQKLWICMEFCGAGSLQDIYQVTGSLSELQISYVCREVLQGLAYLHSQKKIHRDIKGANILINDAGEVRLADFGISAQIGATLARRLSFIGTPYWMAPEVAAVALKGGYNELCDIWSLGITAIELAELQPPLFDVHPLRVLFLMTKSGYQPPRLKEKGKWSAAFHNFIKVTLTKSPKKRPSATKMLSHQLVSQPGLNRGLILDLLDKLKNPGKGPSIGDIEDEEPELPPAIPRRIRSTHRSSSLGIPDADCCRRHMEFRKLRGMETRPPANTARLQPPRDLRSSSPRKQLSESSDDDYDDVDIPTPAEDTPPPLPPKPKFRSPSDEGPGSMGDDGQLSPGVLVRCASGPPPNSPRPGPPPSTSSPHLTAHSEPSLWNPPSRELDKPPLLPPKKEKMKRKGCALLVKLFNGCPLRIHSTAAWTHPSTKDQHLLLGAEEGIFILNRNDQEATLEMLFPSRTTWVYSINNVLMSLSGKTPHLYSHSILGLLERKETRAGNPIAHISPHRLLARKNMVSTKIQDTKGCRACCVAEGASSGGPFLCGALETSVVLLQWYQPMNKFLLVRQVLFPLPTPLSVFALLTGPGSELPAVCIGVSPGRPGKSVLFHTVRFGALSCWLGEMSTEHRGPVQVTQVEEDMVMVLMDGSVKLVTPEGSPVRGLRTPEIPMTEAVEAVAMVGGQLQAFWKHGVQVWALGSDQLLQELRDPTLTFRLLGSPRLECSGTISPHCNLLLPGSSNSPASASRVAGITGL

C[C@H]1COCCN1c1nc(-c2ccc(NC(=O)NC3CC3)cc2)cc(-c2ccccc2S(C)(=O)=O)n1 [Example 4, (S)-1-cyclopropyl-3-(4-(2-(3-methylmorpholino)-6-(2-(methylsulfonyl)phenyl)pyrimidin-4-yl)phenyl)urea]
> 10 µM: all assays above

C[C@H]1COCCN1c1cc(-c2ccccc2S(C)(=O)=O)nc(-c2ccc(NC(=O)NC3CC3)cc2)n1 [Example 6, (S)-1-cyclopropyl-3-(4-(4-(3-methylmorpholino)-6-(2-(methylsulfonyl)phenyl)pyrimidin-2-yl)phenyl)urea]
> 10 µM: all assays above

CCNC(=O)Nc1ccc(-c2cc(-c3ccccc3C#N)nc(N3CCOC[C@@H]3C)n2)cc1 [Example 8, (S)-1-(4-(6-(2-cyanophenyl)-2-(3-methylmorpholino)pyrimidin-4-yl)phenyl)-3-ethylurea]
> 10 µM: all assays above

C[C@H]1COCCN1c1nc(-c2ccc(NC(=O)NC3CC3)cc2)cc(-c2cc(F)ccc2S(C)(=O)=O)n1 [Example 40, (S)-1-cyclopropyl-3-(4-(6-(5-fluoro-2-(methylsulfonyl)phenyl)-2-(3-methylmorpholino)pyrimidin-4-yl)phenyl)urea]
> 10 µM: all assays above

C[C@H]1COCCN1c1cc(-c2ccccn2)nc(-c2ccc(NC(=O)NCCO)cc2)n1 [Example 43, (S)-1-(2-hydroxyethyl)-3-(4-(4-(3-methylmorpholino)-6-(pyridin-2-yl)pyrimidin-2-yl)phenyl)urea]
> 10 µM: all assays above

C[C@H]1COCCN1c1nc(-c2ccc(NC(=O)NC3CC3)cc2)cc(-c2cccnc2S(C)(=O)=O)n1 [Example 46, (S)-1-cyclopropyl-3-(4-(2-(3-methylmorpholino)-6-(2-(methylsulfonyl)pyridin-3-yl)pyrimidin-4-yl)phenyl)urea]
> 10 µM: all assays above

C[C@H]1COCCN1c1nc(-c2ccc(NC(=O)N[C@H]3CCC[C@@H]3O)cc2)cc(-c2cc(F)ccc2S(C)(=O)=O)n1 [Example 76, 1-(4-(6-(5-fluoro-2-(methylsulfonyl)phenyl)-2-((S)-3-methylmorpholino)pyrimidin-4-yl)phenyl)-3-((1S,2S)-2-hydroxycyclopentyl)urea]
> 10 µM: all assays above
